ChEMBL document CHEMBL1201862, “PubChem BioAssay data set” (2004)
The source made the active and inactive calls.

Tests used:
[1] = molecular target: DNA topoisomerase (Yersinia pestis, UniProt A0A2S9PM60); experiment: Y. pestis Topo-I inhibitors, cleavage product readout, dose response, biochemical, cherry-pick (AID 588525)
[2] = test system: Jurkat; experiment: SAR Analysis of small molecule inhibitors of […] specific antigen receptor-induced NF-kB activation in a Jurkat cell line using a luminescence assay - Set 3. [Related pubchem assays (depositor defined):AID435022, AID435025, AID465]; format: functional, cell-based; conditions: Homo sapiens
[3] = test system: HEK293; experiment: cytotoxicity in HEK293T NF-kB-Luc cells, SAR follow-up, cytotoxicity control for NF-kB activator project, cell-based, resazurin fluorescence (AID 493251); format: functional; conditions: Homo sapiens
[4] = test system: HEK293; experiment: SAR Analysis of small molecule inhibitors of B-cell specific antigen receptor-induced NF-kB activation in a HEK-293T cell line using a luminescence assay - Set 2. [Related pubchem assays (depositor defined):AID435022, AID435025, AID489021]; format: functional, cell-based; conditions: Homo sapiens
[5] = molecular target: T1, Dual specificity protein phosphatase 3 (Homo sapiens, UniProt P51452); experiment: VHR phosphatase inhibition, dose response, selectivity assay for STEP inhibitor project, biochemical (AID 602374); format: functional; conditions: read-out: IC50_Mean
T1 sequence (P51452 whole entry): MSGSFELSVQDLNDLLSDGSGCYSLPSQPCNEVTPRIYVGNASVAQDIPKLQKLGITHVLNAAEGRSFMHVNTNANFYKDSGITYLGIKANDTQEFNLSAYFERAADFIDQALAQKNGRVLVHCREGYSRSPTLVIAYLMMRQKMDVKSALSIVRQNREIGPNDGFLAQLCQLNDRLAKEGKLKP

[6] = molecular target: Tyrosine-protein phosphatase non-receptor type 11 (Homo sapiens, UniProt Q06124); experiment: SHP2 phosphatase inhibition, dose response, selectivity assay for STEP inhibitor project, biochemical (AID 602367); format: functional; conditions: read-out: IC50_Mean
[7] = molecular target: Tyrosine-protein phosphatase non-receptor type 5 (Homo sapiens, UniProt P54829); experiment: STEP phosphatase inhibitors, confirmation, biochemical, fluorescence intensity, uHTS hits (AID 602372); format: functional; conditions: read-out: IC50_Mean
[8] = molecular target: Low molecular weight phosphotyrosine protein phosphatase (Homo sapiens, UniProt P24666); format: functional; conditions: read-out: IC50_Mean;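 note: Dose-response confirmation assay measuring inhibition of LMPTP enzyme activity by fluorescence intensity read-out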
Low molecular weight phosphotyrosine protein phosphatase, sequence (P24666 whole entry): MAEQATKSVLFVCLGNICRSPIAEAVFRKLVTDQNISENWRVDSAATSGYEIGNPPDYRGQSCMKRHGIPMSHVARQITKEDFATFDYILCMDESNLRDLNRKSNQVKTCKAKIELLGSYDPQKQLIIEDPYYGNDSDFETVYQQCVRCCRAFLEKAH

[9] = molecular target: Cysteine protease ATG4B (Homo sapiens, UniProt Q9Y4P1); format: functional;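 note: Fluorescence-based dose-response confirmation assay measuring inhibition of ATG4B activity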
Cysteine protease ATG4B, sequence (Q9Y4P1 whole entry): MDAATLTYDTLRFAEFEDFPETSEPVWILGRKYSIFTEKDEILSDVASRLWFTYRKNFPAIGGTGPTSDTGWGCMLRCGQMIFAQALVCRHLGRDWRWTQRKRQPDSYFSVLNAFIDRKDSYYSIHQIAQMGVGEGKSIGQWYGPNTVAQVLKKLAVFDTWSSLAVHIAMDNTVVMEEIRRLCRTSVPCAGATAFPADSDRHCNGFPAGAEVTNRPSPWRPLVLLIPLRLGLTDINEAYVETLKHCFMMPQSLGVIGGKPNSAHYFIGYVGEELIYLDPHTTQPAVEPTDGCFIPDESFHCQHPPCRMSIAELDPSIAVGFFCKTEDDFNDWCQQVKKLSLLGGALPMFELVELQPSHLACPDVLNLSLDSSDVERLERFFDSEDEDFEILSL

[10] = molecular target: Phospholipase A2 (Homo sapiens, UniProt P04054); format: functional;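 note: confirmatory dose-response counterscreen on phospholipase A2, testing hits that came from an ultra-high-throughput screen for ATG4B inhibitors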
Phospholipase A2, sequence (P04054 whole entry, the tested form may be a part): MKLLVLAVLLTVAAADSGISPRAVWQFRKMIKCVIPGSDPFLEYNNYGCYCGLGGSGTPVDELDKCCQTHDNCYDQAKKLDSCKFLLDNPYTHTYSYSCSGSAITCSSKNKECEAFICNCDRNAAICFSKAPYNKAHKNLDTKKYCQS

[11] = molecular target: T2, Carboxy-terminal domain RNA polymerase II polypeptide A small phosphatase 1 (Homo sapiens, UniProt Q9GZU7); experiment: inhibitors of CTDSP1, concentration-response testing, biochemical assay, absorbance-based, actives from ultra-high-throughput screening (AID 540297); format: functional
T2 sequence (Q9GZU7 whole entry): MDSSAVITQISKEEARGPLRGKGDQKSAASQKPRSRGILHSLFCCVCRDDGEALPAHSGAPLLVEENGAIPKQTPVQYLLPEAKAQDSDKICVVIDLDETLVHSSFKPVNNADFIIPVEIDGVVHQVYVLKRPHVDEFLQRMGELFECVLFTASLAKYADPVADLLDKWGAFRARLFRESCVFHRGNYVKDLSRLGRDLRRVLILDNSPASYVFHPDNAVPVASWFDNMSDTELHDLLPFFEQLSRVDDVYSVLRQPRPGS

[12] = molecular target: DNA (cytosine-5)-methyltransferase 1 (Homo sapiens, UniProt P26358); experiment: DNMT1 methyltransferase inhibitors, confirmation, biochemical, fluorescent molecular beacon (AID 602386); format: functional
DNA (cytosine-5)-methyltransferase 1, sequence (P26358 whole entry): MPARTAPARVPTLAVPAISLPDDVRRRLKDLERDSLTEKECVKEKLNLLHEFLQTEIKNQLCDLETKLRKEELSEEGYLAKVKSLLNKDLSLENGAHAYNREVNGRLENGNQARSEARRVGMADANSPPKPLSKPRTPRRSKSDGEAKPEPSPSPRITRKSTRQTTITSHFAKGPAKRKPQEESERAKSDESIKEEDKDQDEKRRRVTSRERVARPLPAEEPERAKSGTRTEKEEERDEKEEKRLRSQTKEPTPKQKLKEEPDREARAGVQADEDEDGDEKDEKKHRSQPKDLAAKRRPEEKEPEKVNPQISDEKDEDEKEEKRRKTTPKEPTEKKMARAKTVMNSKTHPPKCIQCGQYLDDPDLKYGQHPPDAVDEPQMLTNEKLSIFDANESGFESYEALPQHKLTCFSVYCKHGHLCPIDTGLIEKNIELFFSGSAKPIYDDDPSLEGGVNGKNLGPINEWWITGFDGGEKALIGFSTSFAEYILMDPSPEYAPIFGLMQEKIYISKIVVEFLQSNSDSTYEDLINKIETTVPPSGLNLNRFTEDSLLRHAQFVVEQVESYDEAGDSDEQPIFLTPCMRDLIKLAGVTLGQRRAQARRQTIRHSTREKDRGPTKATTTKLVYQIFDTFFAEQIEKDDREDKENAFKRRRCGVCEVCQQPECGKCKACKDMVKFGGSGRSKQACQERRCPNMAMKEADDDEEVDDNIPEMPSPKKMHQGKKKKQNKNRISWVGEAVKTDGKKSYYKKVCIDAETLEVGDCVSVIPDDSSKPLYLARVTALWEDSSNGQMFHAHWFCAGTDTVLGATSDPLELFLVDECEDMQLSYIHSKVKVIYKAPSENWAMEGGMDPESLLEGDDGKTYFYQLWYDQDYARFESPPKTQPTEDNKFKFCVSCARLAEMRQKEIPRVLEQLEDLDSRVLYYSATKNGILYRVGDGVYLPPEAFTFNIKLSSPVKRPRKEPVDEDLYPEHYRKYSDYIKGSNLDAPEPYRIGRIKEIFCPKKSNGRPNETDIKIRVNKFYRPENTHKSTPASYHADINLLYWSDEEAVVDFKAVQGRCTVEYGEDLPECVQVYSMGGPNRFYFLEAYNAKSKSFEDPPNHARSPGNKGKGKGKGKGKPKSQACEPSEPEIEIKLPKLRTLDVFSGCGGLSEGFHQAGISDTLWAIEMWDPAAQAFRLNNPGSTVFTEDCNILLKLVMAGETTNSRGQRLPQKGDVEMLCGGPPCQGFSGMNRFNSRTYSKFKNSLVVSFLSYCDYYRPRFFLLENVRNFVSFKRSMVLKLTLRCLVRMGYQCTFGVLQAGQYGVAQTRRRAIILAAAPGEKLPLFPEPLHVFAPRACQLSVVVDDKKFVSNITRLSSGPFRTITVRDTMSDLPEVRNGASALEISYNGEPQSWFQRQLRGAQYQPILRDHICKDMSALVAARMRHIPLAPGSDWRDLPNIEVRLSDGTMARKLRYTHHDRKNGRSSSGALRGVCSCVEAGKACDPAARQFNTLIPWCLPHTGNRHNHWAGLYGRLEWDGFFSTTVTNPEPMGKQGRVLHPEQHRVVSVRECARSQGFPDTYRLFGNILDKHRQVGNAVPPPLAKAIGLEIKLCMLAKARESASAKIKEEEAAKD

[13] = molecular target: Glycogen synthase kinase-3 beta (Homo sapiens, UniProt P49841); format: functional;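 note: value comes from a broad kinome profiling panel, with GSK3B as the panel member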
[14] = molecular target: Serine/threonine-protein kinase pim-1 (Homo sapiens, UniProt P11309); format: functional
[15] = molecular target: Interleukin-1 receptor-associated kinase 4 (Homo sapiens, UniProt Q9NWZ3); format: functional
[16] = molecular target: Homeodomain-interacting protein kinase 2 (Homo sapiens, UniProt Q9H2X6); format: functional;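 note: measured within a kinome-wide kinase profiling panel, HIPK2 being one panel member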
Homeodomain-interacting protein kinase 2, sequence (Q9H2X6 whole entry): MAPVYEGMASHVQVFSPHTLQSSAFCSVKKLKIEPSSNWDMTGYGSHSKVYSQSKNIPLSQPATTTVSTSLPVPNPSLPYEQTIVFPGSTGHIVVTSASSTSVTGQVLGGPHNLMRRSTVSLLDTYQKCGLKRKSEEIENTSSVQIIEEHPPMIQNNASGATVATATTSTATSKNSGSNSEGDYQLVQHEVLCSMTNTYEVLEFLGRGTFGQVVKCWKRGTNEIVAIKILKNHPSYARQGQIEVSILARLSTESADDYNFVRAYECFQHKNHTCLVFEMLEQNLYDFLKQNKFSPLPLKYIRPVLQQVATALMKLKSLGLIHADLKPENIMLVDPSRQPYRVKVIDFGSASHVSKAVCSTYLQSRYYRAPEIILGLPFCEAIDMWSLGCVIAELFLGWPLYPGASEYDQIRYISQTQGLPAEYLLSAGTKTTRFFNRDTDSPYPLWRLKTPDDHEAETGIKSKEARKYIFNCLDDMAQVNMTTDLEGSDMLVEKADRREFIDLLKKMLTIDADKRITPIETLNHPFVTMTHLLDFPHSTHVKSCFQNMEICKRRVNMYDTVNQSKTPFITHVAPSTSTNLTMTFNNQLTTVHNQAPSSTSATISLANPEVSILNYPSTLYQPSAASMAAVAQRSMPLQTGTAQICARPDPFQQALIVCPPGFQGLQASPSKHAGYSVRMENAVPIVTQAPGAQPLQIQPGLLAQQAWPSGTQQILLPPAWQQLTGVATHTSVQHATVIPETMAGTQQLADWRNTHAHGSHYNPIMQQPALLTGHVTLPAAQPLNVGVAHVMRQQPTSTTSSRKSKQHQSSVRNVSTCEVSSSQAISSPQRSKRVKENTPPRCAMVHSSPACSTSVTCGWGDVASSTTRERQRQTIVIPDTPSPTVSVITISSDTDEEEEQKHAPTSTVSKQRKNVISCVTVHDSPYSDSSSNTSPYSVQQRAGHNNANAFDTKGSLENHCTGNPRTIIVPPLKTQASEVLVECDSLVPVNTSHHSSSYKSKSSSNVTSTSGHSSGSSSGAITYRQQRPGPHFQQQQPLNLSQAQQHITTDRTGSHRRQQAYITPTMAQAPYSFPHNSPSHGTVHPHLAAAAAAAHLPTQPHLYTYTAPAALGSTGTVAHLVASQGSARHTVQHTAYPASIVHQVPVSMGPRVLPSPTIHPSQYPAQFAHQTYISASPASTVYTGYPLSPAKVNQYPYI

[17] = molecular target: cAMP-dependent protein kinase catalytic subunit alpha (Homo sapiens, UniProt P17612); format: functional
[18] = molecular target: Cell division cycle 7-related protein kinase (Homo sapiens, UniProt O00311); format: functional;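 note: value obtained from a kinome-wide kinase panel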
Cell division cycle 7-related protein kinase, sequence (O00311 whole entry): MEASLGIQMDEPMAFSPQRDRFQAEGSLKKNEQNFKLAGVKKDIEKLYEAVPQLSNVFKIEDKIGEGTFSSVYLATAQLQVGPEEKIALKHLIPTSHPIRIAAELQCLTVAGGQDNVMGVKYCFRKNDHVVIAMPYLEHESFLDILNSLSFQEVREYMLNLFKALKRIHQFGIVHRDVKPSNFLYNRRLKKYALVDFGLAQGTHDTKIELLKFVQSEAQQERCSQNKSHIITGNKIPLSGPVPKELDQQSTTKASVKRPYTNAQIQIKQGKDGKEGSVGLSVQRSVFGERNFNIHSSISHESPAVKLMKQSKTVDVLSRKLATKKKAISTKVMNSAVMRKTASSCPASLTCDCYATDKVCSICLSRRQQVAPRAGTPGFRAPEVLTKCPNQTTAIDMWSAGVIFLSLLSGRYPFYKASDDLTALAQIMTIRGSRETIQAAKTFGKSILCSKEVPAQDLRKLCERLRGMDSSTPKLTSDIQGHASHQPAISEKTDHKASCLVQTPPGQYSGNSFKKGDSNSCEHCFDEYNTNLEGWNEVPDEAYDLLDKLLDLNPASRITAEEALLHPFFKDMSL

[19] = molecular target: Dual specificity protein kinase CLK4 (Homo sapiens, UniProt Q9HAZ1); format: functional
[20] = molecular target: T1, Dual specificity protein phosphatase 3; experiment: SAR VHR1 Fluorescent Assay for In Vitro dose response studies Set 3. [Related pubchem assays (depositor defined):AID1654, AID1661, AID1878]; format: functional
[21] = Counterscreen for inhibitors of Trypanosoma brucei methionyl tRNA synthetase (MetRS): Luminescence-based cell-based high throughput dose response assay to identify compounds that are cytotoxic to Jurkat human T lymphocyte cells.; format: functional
[22] = molecular target: T3, Methionyl-tRNA synthetase, putative (Trypanosoma brucei brucei, UniProt Q38C91); format: functional, Trypanosoma brucei brucei strain 927/4 GUTat10.1
T3 sequence (Q38C91 whole entry): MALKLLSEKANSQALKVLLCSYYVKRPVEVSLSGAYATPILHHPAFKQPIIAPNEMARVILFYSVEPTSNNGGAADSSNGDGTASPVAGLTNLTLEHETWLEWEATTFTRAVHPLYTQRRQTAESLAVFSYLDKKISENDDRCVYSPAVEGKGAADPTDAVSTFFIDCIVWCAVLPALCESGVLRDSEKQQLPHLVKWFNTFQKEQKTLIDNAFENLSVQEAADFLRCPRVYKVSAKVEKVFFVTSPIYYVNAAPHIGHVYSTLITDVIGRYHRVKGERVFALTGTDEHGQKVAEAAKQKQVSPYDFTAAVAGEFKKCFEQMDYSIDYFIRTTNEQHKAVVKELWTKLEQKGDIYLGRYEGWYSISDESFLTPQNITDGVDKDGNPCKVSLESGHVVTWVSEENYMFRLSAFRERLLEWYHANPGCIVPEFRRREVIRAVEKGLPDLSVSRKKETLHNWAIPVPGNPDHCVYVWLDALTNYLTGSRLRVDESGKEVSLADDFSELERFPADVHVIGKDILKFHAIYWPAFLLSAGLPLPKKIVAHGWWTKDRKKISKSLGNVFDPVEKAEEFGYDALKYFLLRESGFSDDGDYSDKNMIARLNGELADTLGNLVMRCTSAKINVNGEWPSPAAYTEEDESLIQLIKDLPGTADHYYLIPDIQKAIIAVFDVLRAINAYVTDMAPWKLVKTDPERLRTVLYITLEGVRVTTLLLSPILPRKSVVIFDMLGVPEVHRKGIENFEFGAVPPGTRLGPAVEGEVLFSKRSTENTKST

[23] = molecular target: T3, Methionyl-tRNA synthetase, putative; format: functional, Trypanosoma brucei brucei strain 927/4 GUTat10.1; remark: listed apart in the source
[24] = test system: A-375; experiment: A375 melanoma cell viability reduction, dose response, counter-screen for MITF modulator project, cherry-pick samples, set 2 (AID 540335); format: functional, cell-based; conditions: Homo sapiens
[25] = molecular target: T4, Heat shock factor protein 1 (Mus musculus, UniProt P38532); experiment: inhibition of MG132-induced HSE-luciferase signal, confirmation, cell-based, NIH3T3, luminescence, dose retest (AID 2382); format: functional;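 note: NIH3T3 fibroblasts with HSF1-driven luciferase reporter stressed by proteasome inhibitor MG132; luminescence from HSF1-driven luciferase expression after 8 hours of MG132 stress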
T4 sequence (P38532 whole entry): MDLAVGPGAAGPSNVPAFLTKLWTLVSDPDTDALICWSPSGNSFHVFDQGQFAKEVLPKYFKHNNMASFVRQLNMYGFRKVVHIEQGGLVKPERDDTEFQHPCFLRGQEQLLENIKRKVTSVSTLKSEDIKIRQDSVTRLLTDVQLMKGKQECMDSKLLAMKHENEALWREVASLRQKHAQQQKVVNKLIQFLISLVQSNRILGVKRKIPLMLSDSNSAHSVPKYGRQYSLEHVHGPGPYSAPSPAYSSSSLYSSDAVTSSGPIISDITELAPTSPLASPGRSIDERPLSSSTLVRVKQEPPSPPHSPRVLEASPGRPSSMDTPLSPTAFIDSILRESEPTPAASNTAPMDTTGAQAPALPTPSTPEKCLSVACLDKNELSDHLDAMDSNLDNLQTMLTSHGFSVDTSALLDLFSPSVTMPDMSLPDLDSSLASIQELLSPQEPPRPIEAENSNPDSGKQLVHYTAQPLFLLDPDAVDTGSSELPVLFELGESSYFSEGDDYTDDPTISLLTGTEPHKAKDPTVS

[26] = molecular target: T5, Microphthalmia-associated transcription factor (Homo sapiens, UniProt O75030); experiment: TRPM1 promoter luciferase signal decrease, dose response, MITF inhibitor project, cell-based, SK-MEL-5, cherry-picked, set 3 (AID 493073); format: functional
T5 sequence (O75030 whole entry): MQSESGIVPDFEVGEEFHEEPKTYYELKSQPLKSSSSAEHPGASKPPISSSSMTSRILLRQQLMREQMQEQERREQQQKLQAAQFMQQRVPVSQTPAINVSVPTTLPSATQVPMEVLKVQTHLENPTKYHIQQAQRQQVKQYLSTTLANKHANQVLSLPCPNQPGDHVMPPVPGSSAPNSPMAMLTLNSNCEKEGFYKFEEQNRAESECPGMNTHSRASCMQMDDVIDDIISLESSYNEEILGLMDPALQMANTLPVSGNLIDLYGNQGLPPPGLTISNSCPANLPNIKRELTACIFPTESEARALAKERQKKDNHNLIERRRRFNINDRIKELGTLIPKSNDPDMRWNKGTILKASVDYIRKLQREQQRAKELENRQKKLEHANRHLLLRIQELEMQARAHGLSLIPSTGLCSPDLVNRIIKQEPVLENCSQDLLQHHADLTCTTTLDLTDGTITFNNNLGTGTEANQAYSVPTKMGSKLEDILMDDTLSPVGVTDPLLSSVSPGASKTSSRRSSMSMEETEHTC

In the case of `Oc1nnc(Cc2ccc(-c3ccc(Cl)cc3)o2)c2ccccc12`, the AC50 [1] is reported as 9.08 µM (active).
With `CCOc1ccc(-c2nc(CSCC(=O)N3CCC(C)CC3)c(C)o2)cc1` the IC50 [2] was 32.6 µM (inactive), the IC50 [3] was 30 µM (inactive) and the IC50 [4] was 9.87 µM (active).
With `O=C(N/N=C/c1cccc(Br)c1)c1ccc(N2CCCC2=O)cc1` the IC50 [5] was 7.56 µM (active), the IC50 [6] was 7.26 µM (active) and the IC50 [7] was 11.7 µM (active).
With `O=C(COc1ccc2c(-c3ccccc3)cc(=O)oc2c1)Nc1ccc(CCO)cc1` the IC50 [8] was 40.7 µM (inactive).
With `COc1ccc(OC)c(-c2cc(C(=O)N3CCCc4ccccc43)no2)c1` the IC50 [9] was 20.1 µM (inactive) and the IC50 [10] was 14.8 µM (active).
With `Cc1ccc(C(=O)NN2CC(=O)C(c3nc(-c4cccc([N+](=O)[O-])c4)cs3)=C2N)cc1` the IC50 [11] was 4.06 µM (active) and the IC50 [12] was > 99 µM (inactive).
In the case of `S=C(NCc1ccccc1)Nc1cccc(Cl)c1`, the IC50 [9] is reported as 13.3 µM (active) and the IC50 [10] is reported as 8.8 µM (active).
With `O=[N+]([O-])c1cccc(-c2nnc3ccc(N4CCCCC4)nn23)c1` the Ki [13] was 0.0398 µM (active), the Ki [14] was 0.0316 µM (active) and the Ki [15] was 10 µM (active). The Ki [16] was 0.0126 µM (active), the Ki [17] was > 7.94 µM (inactive) and the Ki [18] was 0.00631 µM (active). The Ki [19] was 0.01 µM (active).
For `COc1ccc(C(=O)NNc2nc3c(OC)cccc3s2)cc1`, the IC50 [20] was > 66 µM (inactive).
For `Cc1c(NS(=O)(=O)c2cccc(C(=O)NCc3cccc(Cl)c3)c2)c(=O)n(-c2ccccc2)n1C`, the IC50 [21] was 83.3 µM (inactive), the IC50 [22] was 21.7 µM (inactive) and the IC50 [23] was 119 µM (inactive).
For `C=CCNC1=NN=C(c2ccc3c(c2)OCCO3)CS1`, the AC50 [24] was 48.9 µM (active), the EC50 [25] was 5.84 µM (active) and the AC50 [26] was 3.37 µM (active).
